In patent US6620815B1, “Oxazolidinones and uses thereof” (Synaptic Pharmaceutical Corporation, priority 1997, dated 2003):
Counter-ions that a name gives are not always drawn.

Key:
[1] = molecular target: T1, cloned human α1A receptor (Homo sapiens, UniProt P35348); assay: Radioligand binding assay, [3H] prazosin displacement, cloned human α1A receptor; details: [3H] prazosin 0.5 nM, membrane preparations of transfected LM(tk-) cells; read-out: hα1A Ki
T1 sequence (P35348 1-466): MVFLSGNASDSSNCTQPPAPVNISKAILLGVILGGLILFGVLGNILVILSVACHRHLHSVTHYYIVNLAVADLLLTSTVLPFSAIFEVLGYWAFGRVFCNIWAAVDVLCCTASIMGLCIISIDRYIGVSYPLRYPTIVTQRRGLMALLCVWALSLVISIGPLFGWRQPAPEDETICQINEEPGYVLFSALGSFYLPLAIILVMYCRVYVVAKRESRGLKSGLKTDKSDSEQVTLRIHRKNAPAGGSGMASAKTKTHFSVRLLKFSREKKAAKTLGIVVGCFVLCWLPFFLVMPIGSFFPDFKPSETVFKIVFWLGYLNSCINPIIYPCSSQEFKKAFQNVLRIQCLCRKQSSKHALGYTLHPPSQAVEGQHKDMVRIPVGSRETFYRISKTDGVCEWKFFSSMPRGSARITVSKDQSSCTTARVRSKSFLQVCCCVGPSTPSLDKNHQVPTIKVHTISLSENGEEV
Method: (§1) These cell lines were prepared by transfecting the cloned cDNA or cloned genomic DNA or constructs containing both genomic DNA and cDNA encoding the human α-adrenergic receptors as follows:
The construct involved ligating three partial overlapping fragments: a 5′ 0.6 kb HincII genomic clone, a central 1.8 EcoRI hippocampal cDNA clone, and a 3′ 0.6 Kb PstI genomic clone. The hippocampal cDNA fragment overlaps with the 5′ and 3′ genomic clones so that the HincII and PstI sites at the 5′ and 3′ ends of the cDNA clone, respectively, were utilized for ligation. This full-length clone was cloned into the KpnI site of the expression vector, using the 5′ and 3′ KpnI sites of the fragment, derived from vector (i.e., pBluescript) and 3′-untranslated sequences, respectively. Stable cell lines were selected as described above.
(§2) Transfected cells from culture flasks were scraped into 5 ml of 5 mM Tris-HCl, 5 mM EDTA, pH 7.5, and lysed by sonication. The cell lysates were centrifuged at 1000 rpm for 5 min at 4° C., and the supernatant was centrifuged at 30,000×g for 20 min at 4° C. The pellet was suspended in 50 mM Tris-HCl, 1 mM MgCl2, and 0.1% ascorbic acid at pH 7.5. Binding of the α1 antagonist [^3H] prazosin (0.5 nM, specific activity 76.2 Ci/mmol) to membrane preparations of LM(tk−) cells was done in a final volume of 0.25 ml and incubated at 37° C. for 20 min. Nonspecific binding was determined in the presence of 10 μM phentolamine. The reaction was stopped by filtration through GF/B filters using a cell harvester.

[2] = molecular target: T2, cloned human α1D receptor (Homo sapiens, UniProt P25100); assay: Radioligand binding assay, [3H] prazosin displacement, cloned human α1D receptor; details: [3H] prazosin 0.5 nM, membrane preparations of transfected LM(tk-) cells; read-out: hα1D Ki
T2 sequence (P25100 1-572): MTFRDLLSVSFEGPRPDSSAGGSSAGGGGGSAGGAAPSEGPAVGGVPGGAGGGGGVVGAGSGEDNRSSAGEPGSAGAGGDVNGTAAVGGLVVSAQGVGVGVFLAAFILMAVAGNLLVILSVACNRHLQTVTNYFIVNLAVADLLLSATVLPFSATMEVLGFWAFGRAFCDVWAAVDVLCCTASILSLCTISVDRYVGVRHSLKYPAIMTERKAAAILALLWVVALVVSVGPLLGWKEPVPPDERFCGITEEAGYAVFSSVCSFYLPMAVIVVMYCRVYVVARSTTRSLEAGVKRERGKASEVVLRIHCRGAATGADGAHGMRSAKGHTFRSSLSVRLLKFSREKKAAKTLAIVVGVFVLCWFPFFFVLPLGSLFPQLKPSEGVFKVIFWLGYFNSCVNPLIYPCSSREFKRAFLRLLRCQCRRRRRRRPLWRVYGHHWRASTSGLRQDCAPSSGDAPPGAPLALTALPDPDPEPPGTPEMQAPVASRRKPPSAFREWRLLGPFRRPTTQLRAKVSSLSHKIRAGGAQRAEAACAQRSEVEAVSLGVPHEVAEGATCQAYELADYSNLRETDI
Method: as §1
The cells were grown, in a controlled environment (37° C., 5% CO2), as monolayers in Dulbecco's modified Eagle's Medium (GIBCO, Grand Island, N.Y.) containing 25 mM glucose and supplemented with 10% bovine calf serum, 100 units/ml penicillin g, and 100 μg/ml streptomycin sulfate.
as §2

[3] = molecular target: T3, cloned human α1B receptor (Homo sapiens, UniProt P35368); assay: Radioligand binding assay, [3H] prazosin displacement, cloned human α1B receptor; details: [3H] prazosin 0.5 nM, membrane preparations of transfected LM(tk-) cells; read-out: hα1B Ki
T3 sequence (P35368 1-520): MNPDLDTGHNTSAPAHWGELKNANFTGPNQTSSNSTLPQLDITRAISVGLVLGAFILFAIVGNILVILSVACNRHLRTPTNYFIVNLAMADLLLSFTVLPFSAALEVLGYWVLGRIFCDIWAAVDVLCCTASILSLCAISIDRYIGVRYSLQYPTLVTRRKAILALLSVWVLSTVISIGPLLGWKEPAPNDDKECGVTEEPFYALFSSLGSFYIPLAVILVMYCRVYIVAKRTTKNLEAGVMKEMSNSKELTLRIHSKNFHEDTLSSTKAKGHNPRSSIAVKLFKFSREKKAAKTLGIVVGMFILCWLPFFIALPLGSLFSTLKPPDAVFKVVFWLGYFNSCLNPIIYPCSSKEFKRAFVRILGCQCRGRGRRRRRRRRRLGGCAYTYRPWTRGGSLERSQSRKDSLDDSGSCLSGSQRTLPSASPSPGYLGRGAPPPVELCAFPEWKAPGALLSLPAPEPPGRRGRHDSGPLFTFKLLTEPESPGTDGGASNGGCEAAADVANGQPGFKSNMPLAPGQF
Method: as §1
The construct involved ligating the full-length containing EcoRI brainstem cDNA fragment from λ ZapII into the expression vector. Stable cell lines were selected as described above.
as §2

| Ki [1] [nM] | Ki [2] [nM] | Ki [3] [nM] | melting point [°C] | Structure (SMILES) |
| --- | --- | --- | --- | --- |
| 0.5 | 11 | 21 | – | COc1ccccc1N1CCN(CCCCCN2C(=O)OCC2c2ccc(F)c(F)c2)CC1 (stereo not drawn) [Example 2, 4-(3,4-Difluorophenyl)-3-{5-[4-(2-methoxy-phenyl)-piperazin-1-yl]-pentyl}-oxazolidin-2-one] |
| 0.7 | 3660 | 4010 | 135 to 137 | CC1(C)OC(=O)N(C(=O)NCC(O)CN2CCC(C#N)(c3ccccc3)CC2)C1c1ccc(F)c(F)c1.Cl (stereo not drawn) [Example 28, N3-[3-(4-Cyano-4-phenylpiperidino)-2-hydroxypropyl]-4-(3,4-difluorophenyl)-5,5-dimethyl-2-oxo-oxazolidine-3-carboxamide Hydrochloride] |
| – | – | – | 174 to 178 | COc1ccccc1N1CCN(CCCCCN2C(=O)OCC2c2ccc(F)c(F)c2)CC1 (stereo not drawn) (as salt: hydrochloride) [Example 2, 4-(3,4-Difluorophenyl)-3-{5-[4-(2-methoxy-phenyl)-piperazin-1-yl]-pentyl}-oxazolidin-2-one] |
| – | – | – | 116 to 118 | CC(=O)OC1(c2ccccc2)CCN(CCCNC(=O)N2C(=O)OC(C)(C)C2c2ccc(F)c(F)c2)CC1.Cl (stereo not drawn) |
| – | – | – | 139 to 141 | Cl.N#CC1(c2ccccc2)CCN(CCCNC(=O)N2C(=O)OCC2(c2ccccc2)c2ccccc2)CC1 |
| – | – | – | 120 to 122 | CC1(C)OC(=O)N(C(=O)NCC(F)CN2CCC(C#N)(c3ccccc3)CC2)C1c1ccc(F)c(F)c1.Cl (stereo not drawn) |
| – | – | – | 148 to 151 | N#CC1(c2ccccc2)CCC(N2CCN(C(=O)N3C(=O)OCC3c3ccc(F)c(F)c3)CC2)CC1 (stereo not drawn) (as salt: HCl) [Example 34, 4-{4-[4-(3,4-Difluoro-phenyl)-2-oxo-oxazolidine-3-carbonyl]-piperazin-1-yl}-1-phenyl-cyclohexanecarbonitrile] |
| – | – | – | 176 to 178 | Cl.Cl.O=C1OCC(c2ccc(F)c(F)c2)N1C(=O)N1CCCC(CN2CCC(c3ccccn3)CC2)C1 (stereo not drawn) |
| – | – | – | 149 to 151 | O=C(NCCCN1CCC(c2ccccc2)(c2ccco2)CC1)N1C(=O)OCC1c1ccc(F)c(F)c1 (stereo not drawn) (as salt: HCl) |

| Structure (SMILES) | Ki [1] [nM] | Ki [2] [nM] | Ki [3] [nM] | melting point [°C] |
| --- | --- | --- | --- | --- |
| COC(=O)C1(c2ccccc2)CCN(CCNC(=O)N2C(=O)OCC2c2ccc(F)c(F)c2)CC1 (stereo not drawn) [Example 21, 4-(3,4-Difluorophenyl)-2-oxo-oxazolidine-3-carboxylic Acid{2-[4-phenylpiperidine-4-(carboxylic Acid Methyl Ester)]ethyl}amide] | 21 | 2460 | 891 | – |
| COC(=O)C1(c2ccccc2)CCN(CCNC(=O)N2C(=O)OCC2c2ccc(F)c(F)c2)CC1 (stereo not drawn) (as salt: hydrochloride) [Example 21, 4-(3,4-Difluorophenyl)-2-oxo-oxazolidine-3-carboxylic Acid{2-[4-phenylpiperidine-4-(carboxylic Acid Methyl Ester)]ethyl}amide] | – | – | – | 80 to 85 |
